In patent US20060069132A1, “Azolecarboxamide herbicides” (priority 2004, published 2006):

Tests used:
cocklebur = assay: Test B pre-/postemergence herbicide test; format: in vivo, Xanthium strumarium; settings: for Plant response rating (0 to 100 scale), Cocklebur: 0 is no effect, preemergence; for Cocklebur plant response rating: postemergence
In short: (§1)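 Herbicidal effect was judged by eye on a 0–100 scale after plants stood 13 to 15 days in the greenhouse following pre- or postemergence treatment with surfactant-containing formulations.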

morningglory = assay: Test B pre-/postemergence herbicide test; format: in vivo, Ipomoea coccinea; settings: for Plant response rating (0 to 100 scale), Morningglory: 0 is no effect, 100 is complete control, preemergence; for Morningglory plant response rating: scale 0 (no effect) to 100 (complete control)
In short: as §1

rice = assay: Test B flooded paddy test; format: in vivo, Oryza sativa; settings: 1000 g ai/ha, scale 0 to 100 (0 no effect, 100 complete control)
In short: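 Greenhouse test; postemergence application to plants at 1–4 leaves (2–18 cm); paddy species at 2 leaves; evaluated visually vs controls at 13–15 days; scale 0–100 (100 = complete control).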

barnyardgrass [1] = assay: Test B flooded paddy test; format: in vivo, Echinochloa crus-galli; settings: 1000 g ai/ha, scale 0 to 100 (0 no effect, 100 complete control)
In short: (§2)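 Treated at 2-leaf (paddy) or 1–4-leaf, 2–18 cm (postemergence); greenhouse 13–15 d; visual score vs control, 0 none to 100 complete control; dash = not tested.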

pigweed = assay: Test B pre-/postemergence herbicide test; format: in vivo, Amaranthus retroflexus; settings: for Plant response rating (0 to 100 scale), Pigweed: 0 is no effect, 100 is complete control, preemergence; for Pigweed plant response rating: scale 0 (no effect) to 100 (complete control)
In short: (§3)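 Greenhouse pot assay with simultaneous preemergence (treated seed) and postemergence (2–18 cm seedlings) applications of surfactant-containing, non-phytotoxic solvent formulations. Response scored visually 13–15 days later on a 0–100 scale, 100 meaning complete control.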

corn = assay: Test B pre-/postemergence herbicide test; format: in vivo, Zea mays; settings: for Plant response rating (0 to 100 scale), Corn: 0 is no effect, preemergence; for Corn plant response rating: postemergence
In short: as §3

Surinam grass = assay: Test B pre-/postemergence herbicide test; format: in vivo, Urochloa decumbens; settings: for Plant response rating (0 to 100 scale), Surinam Grass: 0 is no effect, 100 is complete control, preemergence; for Surinam Grass plant response rating: scale 0 (no effect) to 100 (complete control)
In short: as §3

ducksalad = assay: Test B flooded paddy test; format: in vivo, Heteranthera limosa; settings: 1000 g ai/ha, scale 0 to 100 (0 no effect, 100 complete control)
In short: as §2

large crabgrass = assay: Test B pre-/postemergence herbicide test; format: in vivo, Digitaria sanguinalis; settings: for Plant response rating (0 to 100 scale), Crabgrass, Large: 0 is no effect, preemergence; for Crabgrass, Large plant response rating: postemergence
In short: as §3

giant foxtail = assay: Test B pre-/postemergence herbicide test; format: in vivo, Setaria faberi; settings: for Plant response rating (0 to 100 scale), Foxtail, Giant: 0 is no effect, preemergence; for Foxtail, Giant plant response rating: postemergence
In short: as §3

lambsquarters = assay: Test B pre-/postemergence herbicide test; format: in vivo, Chenopodium album; settings: for Lambsquarters plant response rating: scale 0 (no effect) to 100 (complete control)
In short: as §3

barnyardgrass [2] = assay: Test B pre-/postemergence herbicide test; format: in vivo, Echinochloa crus-galli; settings: for Plant response rating (0 to 100 scale), Barnyardgrass: 0 is no effect, preemergence; for Barnyardgrass plant response rating: postemergence
In short: as §1

blackgrass = assay: Test B postemergence herbicide test; format: in vivo, Alopecurus myosuroides; settings: postemergence
In short: as §2

wheat = assay: Test B postemergence herbicide test; format: in vivo, Triticum aestivum; parameters: key to Wheat plant response rating: 0 = no effect, 100 = complete control
In short: (§4)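 Plants grow to 1- to 4-leaf stage (2–18 cm) for postemergence spraying, or to 2-leaf stage for the paddy test. Formulated compound is applied. Greenhouse holding lasts 13–15 days. Response is scored visually relative to controls, 0 no effect to 100 complete control; a dash means no result.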

wild oat = assay: Test B postemergence herbicide test; format: in vivo, Avena fatua; settings: scale 0 (no effect) to 100 (complete control)
In short: as §4

velvetleaf = assay: Test B pre-/postemergence herbicide test; format: in vivo, Abutilon theophrasti; settings: for Plant response rating (0 to 100 scale), Velvetleaf: 0 is no effect, 100 is complete control, preemergence; for Velvetleaf plant response rating: scale 0 (no effect) to 100 (complete control)
In short: as §3

[3] = tested on: small flower umbrella sedge; assay: Test B flooded paddy test; format: in vivo, Cyperus difformis; settings: 1000 g ai/ha, scale 0 to 100 (0 no effect, 100 complete control)
In short: as §2

[4] = 125 g ai/ha, 100 is complete control
[5] = 125 g ai/ha, visual rating, scale 0 (no effect) to 100 (complete control)
[6] = 500 g ai/ha, scale 0 to 100, 0 is no effect, 100 is complete control
[7] = 125 g ai/ha, visual rating, postemergence
[8] = 125 g ai/ha, visual rating, scale 0 (no effect) to 100 (complete control), postemergence
[9] = 500 g ai/ha, scale 0 to 100, 0 no effect, 100 complete control, preemergence

CCc1nn(C(C)(C)C)nc1C(=O)Nc1cccc(C(=O)N2CC=CC2)c1 [Compound 366]
Plant response rating (0 to 100 scale), Cocklebur (cocklebur; [4]): 0 | Cocklebur plant response rating (cocklebur; [5]): 30 | Cocklebur plant response rating (cocklebur; [6]): 50 | Plant response rating (0 to 100 scale), Morningglory (morningglory; 125 g ai/ha): 30 | Rice plant response rating (rice): 70 | Barnyardgrass plant response rating (barnyardgrass [1]): 80 | Plant response rating (0 to 100 scale), Pigweed (pigweed; 125 g ai/ha): 70 | Pigweed plant response rating (pigweed; [7]): 50 | Plant response rating (0 to 100 scale), Corn (corn; [4]): 40 | Corn plant response rating (corn; [5]): 10 | Corn plant response rating (corn; [6]): 20 | Plant response rating (0 to 100 scale), Surinam Grass (Surinam grass; 125 g ai/ha): 30 | Surinam Grass plant response rating (Surinam grass; [7]): 10 | Ducksalad plant response rating (ducksalad): 100 | Plant response rating (0 to 100 scale), Crabgrass, Large (large crabgrass; [4]): 40 | Crabgrass, Large plant response rating (large crabgrass; [5]): 10 | Crabgrass, Large plant response rating (large crabgrass; [6]): 20 | Plant response rating (0 to 100 scale), Foxtail, Giant (giant foxtail; [4]): 50 | Foxtail, Giant plant response rating (giant foxtail; [5]): 20 | Foxtail, Giant plant response rating (giant foxtail; [6]): 40 | Lambsquarters plant response rating (lambsquarters; [7]): 80 | Plant response rating (0 to 100 scale), Barnyardgrass (barnyardgrass [2]; [4]): 70 | Barnyardgrass plant response rating (barnyardgrass [2]; [5]): 10 | Barnyardgrass plant response rating (barnyardgrass [2]; [6]): 10 | Blackgrass plant response rating (blackgrass; [5]): 40 | Blackgrass plant response rating (blackgrass; [6]): 50 | Wheat plant response rating (wheat; [8]): 20 | Wheat plant response rating (wheat; [9]): 90 | Oat, Wild plant response rating (wild oat; [7]): 40 | Plant response rating (0 to 100 scale), Velvetleaf (velvetleaf; 125 g ai/ha): 0 | Velvetleaf plant response rating (velvetleaf; [7]): 10 | Sedge, Umbrella plant response rating [3]: 90

CCNC(=O)c1ccc(F)c(NC(=O)c2nn(C(C)(C)CC)nc2CC)c1 [Compound 370]
Plant response rating (0 to 100 scale), Cocklebur (cocklebur; [4]): 0 | Cocklebur plant response rating (cocklebur; [5]): 0 | Cocklebur plant response rating (cocklebur; [6]): 0 | Plant response rating (0 to 100 scale), Morningglory (morningglory; 125 g ai/ha): 0 | Morningglory plant response rating (morningglory; [7]): 10 | Morningglory plant response rating (morningglory; Postemergence, 500 g ai/ha): 20 | Rice plant response rating (rice): 30 | Barnyardgrass plant response rating (barnyardgrass [1]): 0 | Plant response rating (0 to 100 scale), Pigweed (pigweed; 125 g ai/ha): 40 | Pigweed plant response rating (pigweed; [7]): 0 | Pigweed plant response rating (pigweed; Postemergence, 500 g ai/ha): 30 | Plant response rating (0 to 100 scale), Corn (corn; [4]): 0 | Corn plant response rating (corn; [5]): 10 | Corn plant response rating (corn; [6]): 10 | Plant response rating (0 to 100 scale), Surinam Grass (Surinam grass; 125 g ai/ha): 0 | Surinam Grass plant response rating (Surinam grass; [7]): 10 | Surinam Grass plant response rating (Surinam grass; Postemergence, 500 g ai/ha): 10 | Ducksalad plant response rating (ducksalad): 60 | Plant response rating (0 to 100 scale), Crabgrass, Large (large crabgrass; [4]): 10 | Crabgrass, Large plant response rating (large crabgrass; [5]): 10 | Crabgrass, Large plant response rating (large crabgrass; [6]): 10 | Plant response rating (0 to 100 scale), Foxtail, Giant (giant foxtail; [4]): 0 | Foxtail, Giant plant response rating (giant foxtail; [5]): 0 | Foxtail, Giant plant response rating (giant foxtail; [6]): 20 | Plant response rating (0 to 100 scale), Lambsquarters (lambsquarters; 125 g ai/ha, 0 is no effect, 100 is complete control, preemergence): 80 | Lambsquarters plant response rating (lambsquarters; [7]): 0 | Lambsquarters plant response rating (lambsquarters; Postemergence, 500 g ai/ha): 20 | Plant response rating (0 to 100 scale), Barnyardgrass (barnyardgrass [2]; [4]): 10 | Barnyardgrass plant response rating (barnyardgrass [2]; [5]): 0 | Barnyardgrass plant response rating (barnyardgrass [2]; [6]): 0 | Blackgrass plant response rating (blackgrass; [5]): 0 | Blackgrass plant response rating (blackgrass; [6]): 10 | Wheat plant response rating (wheat; [8]): 0 | Wheat plant response rating (wheat; [9]): 0 | Wheat plant response rating (wheat; Postemergence, 500 g ai/ha, scale 0 (no effect) to 100 (complete control)): 0 | Oat, Wild plant response rating (wild oat; [7]): 0 | Oat, Wild plant response rating (wild oat; Postemergence, 500 g ai/ha): 0 | Plant response rating (0 to 100 scale), Velvetleaf (velvetleaf; 125 g ai/ha): 0 | Velvetleaf plant response rating (velvetleaf; [7]): 10 | Velvetleaf plant response rating (velvetleaf; Postemergence, 500 g ai/ha): 20 | Sedge, Umbrella plant response rating [3]: 40
